Data taken from the NIST ThermoML archive (doi:10.1021/je050416y).

Assay: xn = mol fraction of the nth substance listed
Details: 101 kPa, Liquid; for mass density: Vibrating tube method

CCC(C)CO (configuration not stated) [2-methyl-1-butanol] + CCO
Details	kinematic viscosity [m2/s]	mass density [kg/m3]
293.15 K, x1 = 0.0268	–	790.9
293.15 K, x1 = 0.0549	–	792.1
293.15 K, x1 = 0.0845	–	793.4
293.15 K, x1 = 0.0915	1.66e-06	–
293.15 K, x1 = 0.1156	–	794.7
293.15 K, x1 = 0.1484	–	795.9
293.15 K, x1 = 0.1753	1.8e-06	–
293.15 K, x1 = 0.183	–	797.2
293.15 K, x1 = 0.2524	1.92e-06	–
293.15 K, x1 = 0.2584	–	799.9
293.15 K, x1 = 0.3235	2.04e-06	–
293.15 K, x1 = 0.3433	–	802.7
293.15 K, x1 = 0.3894	2.17e-06	–
293.15 K, x1 = 0.4395	–	805.5
293.15 K, x1 = 0.4505	2.32e-06	–
293.15 K, x1 = 0.5495	–	808.4
293.15 K, x1 = 0.5605	2.67e-06	–
293.15 K, x1 = 0.6567	3.06e-06	–
293.15 K, x1 = 0.6765	–	811.4
293.15 K, x1 = 0.7416	3.47e-06	–
293.15 K, x1 = 0.817	3.92e-06	–
293.15 K, x1 = 0.8247	–	814.5
293.15 K, x1 = 0.8844	4.45e-06	–
293.15 K, x1 = 0.9451	5.14e-06	–
293.15 K, x1 = 1	6.11e-06	817.6
298.15 K, x1 = 0.0268	–	786.6
298.15 K, x1 = 0.0549	–	787.9
298.15 K, x1 = 0.0845	–	789.2
298.15 K, x1 = 0.0915	1.5e-06	–
298.15 K, x1 = 0.1156	–	790.6
298.15 K, x1 = 0.1484	–	791.9
298.15 K, x1 = 0.1753	1.61e-06	–
298.15 K, x1 = 0.183	–	793.2
298.15 K, x1 = 0.2524	1.71e-06	–
298.15 K, x1 = 0.2584	–	796
298.15 K, x1 = 0.3235	1.82e-06	–
298.15 K, x1 = 0.3433	–	798.8
298.15 K, x1 = 0.3894	1.93e-06	–
298.15 K, x1 = 0.4395	–	801.8
298.15 K, x1 = 0.4505	2.06e-06	–
298.15 K, x1 = 0.5495	–	804.8
298.15 K, x1 = 0.5605	2.36e-06	–
298.15 K, x1 = 0.6567	2.69e-06	–
298.15 K, x1 = 0.6765	–	807.9
298.15 K, x1 = 0.7416	3.04e-06	–
298.15 K, x1 = 0.817	3.43e-06	–
298.15 K, x1 = 0.8247	–	811
298.15 K, x1 = 0.8844	3.89e-06	–
298.15 K, x1 = 0.9451	4.49e-06	–
298.15 K, x1 = 1	5.34e-06	814.1
303.15 K, x1 = 0.0268	–	782.3
303.15 K, x1 = 0.0549	–	783.7
303.15 K, x1 = 0.0845	–	785
303.15 K, x1 = 0.0915	1.32e-06	–
303.15 K, x1 = 0.1156	–	786.4
303.15 K, x1 = 0.1484	–	787.8
303.15 K, x1 = 0.1753	1.41e-06	–
303.15 K, x1 = 0.183	–	789.2
303.15 K, x1 = 0.2524	1.5e-06	–
303.15 K, x1 = 0.2584	–	792
303.15 K, x1 = 0.3235	1.59e-06	–
303.15 K, x1 = 0.3433	–	795
303.15 K, x1 = 0.3894	1.68e-06	–
303.15 K, x1 = 0.4395	–	798
303.15 K, x1 = 0.4505	1.8e-06	–
303.15 K, x1 = 0.5495	–	801.1
303.15 K, x1 = 0.5605	2.06e-06	–
303.15 K, x1 = 0.6567	2.35e-06	–
303.15 K, x1 = 0.6765	–	804.2
303.15 K, x1 = 0.7416	2.66e-06	–
303.15 K, x1 = 0.817	3e-06	–
303.15 K, x1 = 0.8247	–	807.4
303.15 K, x1 = 0.8844	3.41e-06	–
303.15 K, x1 = 0.9451	3.94e-06	–
303.15 K, x1 = 1	4.69e-06	810.5
308.15 K, x1 = 0.0268	–	778
308.15 K, x1 = 0.0549	–	779.4
308.15 K, x1 = 0.0845	–	780.9
308.15 K, x1 = 0.0915	1.2e-06	–
308.15 K, x1 = 0.1156	–	782.3
308.15 K, x1 = 0.1484	–	783.8
308.15 K, x1 = 0.1753	1.27e-06	–
308.15 K, x1 = 0.183	–	785.2
308.15 K, x1 = 0.2524	1.34e-06	–
308.15 K, x1 = 0.2584	–	788.1
308.15 K, x1 = 0.3235	1.42e-06	–
308.15 K, x1 = 0.3433	–	791.2
308.15 K, x1 = 0.3894	1.5e-06	–
308.15 K, x1 = 0.4395	–	794.3
308.15 K, x1 = 0.4505	1.6e-06	–
308.15 K, x1 = 0.5495	–	797.5
308.15 K, x1 = 0.5605	1.82e-06	–
308.15 K, x1 = 0.6567	2.07e-06	–
308.15 K, x1 = 0.6765	–	800.7
308.15 K, x1 = 0.7416	2.33e-06	–
308.15 K, x1 = 0.817	2.62e-06	–
308.15 K, x1 = 0.8247	–	803.9
308.15 K, x1 = 0.8844	2.97e-06	–
308.15 K, x1 = 0.9451	3.43e-06	–
308.15 K, x1 = 1	4.08e-06	807.1
313.15 K, x1 = 0.0268	–	773.7
313.15 K, x1 = 0.0549	–	775.2
313.15 K, x1 = 0.0845	–	776.7
313.15 K, x1 = 0.0915	1.08e-06	–
313.15 K, x1 = 0.1156	–	778.2
313.15 K, x1 = 0.1484	–	779.7
313.15 K, x1 = 0.1753	1.14e-06	–
313.15 K, x1 = 0.183	–	781.2
313.15 K, x1 = 0.2524	1.2e-06	–
313.15 K, x1 = 0.2584	–	784.2
313.15 K, x1 = 0.3235	1.26e-06	–
313.15 K, x1 = 0.3433	–	787.3
313.15 K, x1 = 0.3894	1.33e-06	–
313.15 K, x1 = 0.4395	–	790.5
313.15 K, x1 = 0.4505	1.41e-06	–
313.15 K, x1 = 0.5495	–	793.8
313.15 K, x1 = 0.5605	1.6e-06	–
313.15 K, x1 = 0.6567	1.8e-06	–
313.15 K, x1 = 0.6765	–	797
313.15 K, x1 = 0.7416	2.03e-06	–
313.15 K, x1 = 0.817	2.28e-06	–
313.15 K, x1 = 0.8247	–	800.3
313.15 K, x1 = 0.8844	2.58e-06	–
313.15 K, x1 = 0.9451	2.97e-06	–
313.15 K, x1 = 1	3.54e-06	803.6
318.15 K, x1 = 0.0268	–	769.4
318.15 K, x1 = 0.0549	–	771
318.15 K, x1 = 0.0845	–	772.5
318.15 K, x1 = 0.0915	9.8e-07	–
318.15 K, x1 = 0.1156	–	774.1
318.15 K, x1 = 0.1484	–	775.6
318.15 K, x1 = 0.1753	1.03e-06	–
318.15 K, x1 = 0.183	–	777.2
318.15 K, x1 = 0.2524	1.07e-06	–
318.15 K, x1 = 0.2584	–	780.3
318.15 K, x1 = 0.3235	1.13e-06	–
318.15 K, x1 = 0.3433	–	783.5
318.15 K, x1 = 0.3894	1.19e-06	–
318.15 K, x1 = 0.4395	–	786.8
318.15 K, x1 = 0.4505	1.25e-06	–
318.15 K, x1 = 0.5495	–	790.1
318.15 K, x1 = 0.5605	1.41e-06	–
318.15 K, x1 = 0.6567	1.59e-06	–
318.15 K, x1 = 0.6765	–	793.4
318.15 K, x1 = 0.7416	1.78e-06	–
318.15 K, x1 = 0.817	2e-06	–
318.15 K, x1 = 0.8247	–	796.7
318.15 K, x1 = 0.8844	2.26e-06	–
318.15 K, x1 = 0.9451	2.6e-06	–
318.15 K, x1 = 1	3.09e-06	800.1
323.15 K, x1 = 0.0268	–	765.1
323.15 K, x1 = 0.0549	–	766.7
323.15 K, x1 = 0.0845	–	768.3
323.15 K, x1 = 0.0915	8.59e-07	–
323.15 K, x1 = 0.1156	–	769.9
323.15 K, x1 = 0.1484	–	771.5
323.15 K, x1 = 0.1753	8.96e-07	–
323.15 K, x1 = 0.183	–	773.1
323.15 K, x1 = 0.2524	9.37e-07	–
323.15 K, x1 = 0.2584	–	776.3
323.15 K, x1 = 0.3235	9.83e-07	–
323.15 K, x1 = 0.3433	–	779.6
323.15 K, x1 = 0.3894	1.04e-06	–
323.15 K, x1 = 0.4395	–	782.9
323.15 K, x1 = 0.4505	1.1e-06	–
323.15 K, x1 = 0.5495	–	786.3
323.15 K, x1 = 0.5605	1.23e-06	–
323.15 K, x1 = 0.6567	1.39e-06	–
323.15 K, x1 = 0.6765	–	789.7
323.15 K, x1 = 0.7416	1.56e-06	–
323.15 K, x1 = 0.817	1.75e-06	–
323.15 K, x1 = 0.8247	–	793.2
323.15 K, x1 = 0.8844	1.98e-06	–
323.15 K, x1 = 0.9451	2.28e-06	–
323.15 K, x1 = 1	2.72e-06	796.6
